Activity and inhibition data for three compounds are collected here from ChEMBL document CHEMBL3351886.

Holding throughout (type): cell-based
The test system of assay [1] is NG108-15. Briefly: Agonist activity at AT2 receptor in rat and mouse hybridoma NG108-15 cells assessed as induction of neurite outgrowth at 100 nM after 3 days in presence of 1 uM AT2 receptor antagonist PD 123,319 by phase contrast microscopy.
In assay [2] the test system is NG108-15. In words: Antagonist activity at AT2 receptor in rat and mouse hybridoma NG108-15 cells assessed as reduction in angiotensin-2-induced neurite outgrowth at 100 nM after 3 days by phase contrast microscopy.
Assay [3] deals with NG108-15. In words: Agonist activity at AT2 receptor in rat and mouse hybridoma NG108-15 cells assessed as induction of neurite outgrowth at 100 nM after 3 days by phase contrast microscopy.

Active and inactive are the calls of the source. No cut-off for these calls is given here.

In the case of `CNCC(=O)N[C@@H](CCCNC(=N)N)C(=O)N[C@H](C(=O)N[C@@H](Cc1ccc(O)cc1)C(=O)N[C@H](C(=O)N[C@@H](Cc1cnc[nH]1)C(=O)N1CCC[C@H]1C(=O)N[C@@H](C)C(=O)O)C(C)C)C(C)C`, the result with NG108-15 [1] was inactive. Besides, the inhibition result in the assay on NG108-15 [2] is “inactive”. Also, in the assay with NG108-15 [3], the outcome was Active.

For `CC[C@H](C)[C@H](NC(=O)[C@@H]1CCCN1C(=O)[C@H](Cc1c[nH]cn1)NC(=O)[C@@H](NC(=O)[C@H](Cc1ccc(O)cc1)NC(=O)[C@@H](NC(=O)[C@H](CCCN=C(N)N)NC(=O)CNC)C(C)C)[C@@H](C)CC)C(=O)O`, the result with NG108-15 [1] was inactive. The inhibition result in the assay on NG108-15 [2] was “inactive”. The result with NG108-15 [3] was Active.

With `CC[C@H](C)[C@H](NC(=O)[C@H](Cc1ccc(O)cc1)NC(=O)[C@@H](NC(=O)[C@H](CCCNC(=N)N)NC(=O)[C@@H](N)CC(=O)O)C(C)C)C(=O)N[C@@H](Cc1cnc[nH]1)C(=O)N1CCC[C@H]1C(=O)N[C@@H](Cc1ccccc1)C(=O)O`, the outcome with NG108-15 [1] was inactive. Besides, the outcome in the assay with NG108-15 [3] was Active.
